Article PMC2376196, “Novel thalidomide analogues display anti-angiogenic activity independently of immunomodulatory effects” (British Journal of Cancer, 2002)
Values after ≈ are worked out from the molar mass of the structure shown. “Also recorded” adds a separate entry of the source. Where two headings read alike, the source gives them in different places.

Assays:
[1] = system: PDE type 4 purified from U937 cells; experiment: Phosphodiesterase (PDE) type 4 assay; format: biochemical; conditions: PDE type 4 from U937 cells; three independent experiments; read-out: PDE4 activity IC50
Description: PDE type 4 purification from U937 cells was carried out using the method of [Hill and Mitchell (1994)]. PDE activity was assayed, using a method described by [di Santo and Heaslip (1993)], in the presence of varying concentrations of thalidomide analogues. Each data point was carried out in duplicate with activity expressed as percentage of control. IC50 was determined from dose response curves derived from three independent experiments.

[2] = system: TNF-α; experiment: TNF-α inhibitory activity; format: cell-based
[3] = system: HUVEC; experiment: HUVEC proliferation (bFGF- and VEGF-induced, 3H-thymidine); format: cell-based, human; conditions: for bFGF and VEGF-induced proliferation of HUVECs: 5-50 μg ml^-1, 96 h; for HUVEC inhibition ~IC50 VEGF / HUVEC inhibition ~IC50 bFGF / IC50: 96 h, approximate figures; for IC50: Homo sapiens, HUVEC
Description: (§1) Human umbilical vein endothelial cells (HUVEC) were purchased from TCS Cellworks Ltd. (Park Leys, Botolph Claydon, Bucks, UK) and cultured in large vessel EC basal medium and cell growth supplement (TCS Cellworks Ltd.). The cells were passaged between 3–5 times prior to use. The human endothelial-like EA.hy926 cell line, derived from the fusion of HUVEC with the A549 carcinoma cell line ([Edgell et al, 1983]), was kindly provided by Cora-Jean Edgell (NC, USA). The cells were cultured in DMEM with high glucose, 10% FCS and HAT. Both cell lines were harvested from subconfluent cultures and diluted to 4×10^4 cells ml^−1. Cells were seeded in 60 wells of a 96-well plate in a volume of 100 μl^−1. One plate was used per test article. Plates were incubated for 1 h at 37°C and 5% CO2. Growth factors were added at a volume of 50 μl^−1 with final concentrations of 10 ng ml^−1. Thalidomide and its analogues were added at a volume of 50 μl^−1 in final concentrations of 5, 10, 25, 50 μg ml^−1. DMSO as used as a vehicle at a final concentration of 0.05%. Plates were incubated at 37°C with 5% CO2 for 96 h. During the last 18 h of culture 1 μCi^−1 of ^3H-thymidine was added per well. Plates were then stored at −20°C until analysis using a Microbeta counter (Wallac, UK).

[4] = system: EA.hy926 cell line; experiment: EA.hy926 proliferation (bFGF- and VEGF-induced, 3H-thymidine); format: cell-based, human; conditions: 5-50 μg ml^-1, 96 h; data not shown
Description: as §1

[5] = system: rat aortic explants; experiment: Rat aorta assay (microvessel outgrowths); format: cell-based; parameters: key to Anti-angiogenesis Rat aorta: 0=no effect; 1=non significant inhibition; 2=significant inhibition at 10 μg ml^-1; 3=significant inhibition at 1 μg ml^-1; conditions: for Anti-angiogenesis Rat aorta: ranked 0-3
Description: For the human angiogenesis assay thalidomide and various analogues were dissolved in DMSO (Sigma, Kent, UK) to obtain a stock solution of 1 mg ml^−1. Further dilutions were made in warm culture medium immediately before use and 1 and 10 μg ml^−1 of thalidomide or analogues were administered every 48 h. Final DMSO concentration was 0.05%. For the rat aorta assay, thalidomide analogues (Celgene, Warren, NJ, USA) were prepared in Tween 80 (Sigma, Kent, UK). […] The final Tween 80 concentration was 0.025%. For in vivo treatment experiments, mice were treated daily with 10 or 50 mg kg^−1 IMiD-1 with 0.5% DMSO as vehicle (see Tumour challenge model).
Preparation of agarose culture wells and aortic explants were prepared as described originally [Nicosia and Ottinetti, 1990], and subsequently modified by [Stevenson et al, 1998]. In brief, aortic explants were stored in DMEM/HAM F12. Agarose rings were obtained by punching two concentric circles in the sterile agarose gel (1.5%, w v^−1) with specifically designed aluminium punches. Collagen type I from rat tail (Sigma) was dissolved overnight in glacial acetic acid and diluted to 4.3 mg ml^−1 with 10% (v v^−1) DMEM/HAM F12. The final collagen solution was obtained by mixing seven volumes of 4.3 mg ml^−1 collagen with two volumes NaHCO3 (11.7 mg ml^−1 in DMEM/HAM F12) and one volume of 10×MEM. Finally, the pH was adjusted to 7.4 with 0.1 M NaOH using phenol red as a visual indicator. Prior to embedding of explants in collagen gel, the bottom of each agarose well was coated with 200 μl collagen solution and allowed to set at 37°C. The wells were then filled (further addition of 400 μl) and explants were promptly orientated into the centre of the collagen gel. The plates were incubated overnight with serum-free medium before group allocation and drug treatment commenced. Drugs were prepared as described and diluted in DMEM/HAM F12 medium to be administered at each media change (48 h). Microvessel outgrowths in all cultures were quantified at each media change.

[6] = system: HUVECs (tubule formation); experiment: Human angiogenesis kit (tubule development); format: cell-based; parameters: key to Anti-angiogenesis Human model: 0=no effect; 1=non significant inhibition; 2=significant inhibition at 10 μg ml^-1; 3=significant inhibition at 1 μg ml^-1; conditions: for inhibition of tubule development: 11 days; for Anti-angiogenesis Human model: ranked 0-3
Description: (§2) For the human angiogenesis assay thalidomide and various analogues were dissolved in DMSO (Sigma, Kent, UK) to obtain a stock solution of 1 mg ml^−1. Further dilutions were made in warm culture medium immediately before use and 1 and 10 μg ml^−1 of thalidomide or analogues were administered every 48 h. Final DMSO concentration was 0.05%. For the rat aorta assay, thalidomide analogues (Celgene, Warren, NJ, USA) were prepared in Tween 80 (Sigma, Kent, UK). Dilutions were made in culture medium immediately before use and 1 or 10 μg ml^−1 of the analogues were administered every 48 h. The final Tween 80 concentration was 0.025%. For in vivo treatment experiments, mice were treated daily with 10 or 50 mg kg^−1 IMiD-1 with 0.5% DMSO as vehicle (see Tumour challenge model).
A commercially available human angiogenesis kit, used for the assessment of angiogenesis in vitro ([Bishop et al, 2000]; [Donovan et al, 2001]; [Terai et al, 2001]; [Drinkwater et al, 2002]; [Osugi et al, 2002]) was provided by TCS Cellworks. The assay is supplied as growing cultures of HUVECs at the earliest stages of tubule formation in a 24 well plate format. The assay was carried out according to manufactures instructions with minor modifications. In brief, 0.5 ml^−1 of fresh medium or medium plus drug preparations were added to the appropriate wells. A known angiogenic stimulator (VEGF at 5 ng ml^−1) and inhibitor (suramin at 10 μg ml^−1) were included as positive and negative controls respectively in addition to medium and DMSO controls and plates were incubated at 37°C. Drug administration was carried out every 48 h. On day 11, wells were fixed using ice cold 70% EtOH prior to incubation (RT) for 30 min. Blocking buffer was then added for 10 min. Endothelial cells were visualised by first staining with a primary sheep anti-human for von Willebrand factor antibody followed by a secondary donkey anti-sheep IgG horseradish peroxidase conjugate prior to colour development using a DAB metal substrate. The plate was washed with ddH2O (×3) and allowed to air dry overnight. Cultures were scored manually using a 25-point Chalkley eyepiece graticule (Graticules Ltd., Tonbridge, Kent, UK), previously described as a satisfactory method of assessing tumour vascularity ([Fox et al, 1995]). The extent of angiogenesis was assessed by counting the number of points on the chalkley graticule that landed on a tubule. The count was repeated 12 times for each well. The term ‘graticule unit’ was assigned to this measurement of tubule density.

[7] = system: EA.hy926 cells; experiment: Wound assay for EA.hy926 cell migration; format: cell-based, human; conditions: 16 h
Description: We tested IMiD-1 in the wound healing assay as described by [Igura et al, 2001]. Briefly, confluent monolayers of EA.hy.926 cells in 35-mm dishes were wounded with a rubber policeman and washed with PBS. Then the dishes were incubated in complete DMEM containing IMiD-1 or suramin for 16 h at 37°C in a 5% CO2 incubator. DMSO (0.05%) was used as control. The cell monolayers were fixed with absolute methanol and stained with Giemsa. The number of cells that had migrated from the edge of the wound in each 125×500 μm area of eight randomly chosen fields was counted. The results are presented as the average number of cells per field.

[8] = system: CMT93 colorectal tumour; format: in vivo, MF1 nude mice
Description: as §2
MF1 nude mice (nu nu^−1) were purchased from Harlan UK. Mice were age and sex-matched for individual experiments. All animal experiments have been carried out with ethical committee approval. The ethical guidelines that were followed meet the standards set by the UKCCCR guidelines ([Workman et al, 1998]). CMT93 is an epithelial-like murine rectum polypoid carcinoma cell line with sarcomatous features derived from a C57/BL mouse ([Franks and Hemmings, 1978]). Mice were challenged subcutaneously with 200 μl of the murine colorectal cell line CMT93 (2×10^6 per mouse). Once the tumours reached a size of 20 mm^3, the potent anti-angiogenic analogue IMiD-1 was administered intraperitoneally daily at a concentration of 10 or 50 mg kg^−1. Tumours were measured every 3–4 days, and volumes (in mm^3) were calculated by the use of the formula (width [mm^2]×length [mm]×0.52). The animals were observed daily, and those bearing large tumours were monitored carefully for any signs of discomfort. […] Histological samples were obtained using formalin-fixed, paraffin-embedded sections stained for haematoxylin and eosin and viewed under a microscope at a magnification of ×400.

[9] = system: CMT93 cells; experiment: CMT93 cells in vitro (direct effect, VEGF secretion); format: cell-based, murine; conditions: data not shown
[10] = system: human EC; parameters: method as in Moreira et al, 1999; conditions: compared with thalidomide; ref Moreira et al, 1999; cited from earlier work
[11] = system: EC; parameters: method as in Takano et al, 1994; conditions: ref Takano et al, 1994; cited from earlier work

IC50 [1]	IC50 [2]	Compound	bFGF and VEGF-induced proliferation of HUVECs [3]	HUVEC inhibition ~IC50 VEGF ([3]; VEGF-induced proliferation)	HUVEC inhibition ~IC50 bFGF ([3]; bFGF-induced proliferation)	bFGF and VEGF-induced proliferation of EA.hy926 [4]	inhibition of microvessel outgrowths ([5]; 1 μg ml^-1 every 48 h)	Anti-angiogenesis Rat aorta [5]	inhibition of tubule development ([6]; 10 μg ml^-1 every 48 h)	Anti-angiogenesis Human model [6]	migration of EC in the wound healing assay [7]	inhibition of microvessel outgrowths ([5]; 10 μg ml^-1 every 48 h)	other results
> 100 µM	0.1 µM	Nc1cccc2c1CN(C1CCC(=O)NC1=O)C2=O (centres unmarked) [IMiD-1]	did not significantly inhibit; also recorded: did not affect	>50 µg/mL	>50 µg/mL	did not affect	significantly inhibited	3	more potent than suramin	3	significantly inhibit		inhibition of microvessel outgrowths ([5]; 10 μg ml^-1 every 48 h, up to day 10): 100%; inhibition of tubule development ([6]; 1 μg ml^-1 every 48 h): significant reduction; also recorded: significantly inhibit; histological examination of tumours ([8]; 10 or 50 mg kg^-1 i.p. daily): vast regions of necrotic tissue; tumour growth rates ([8]; 10 or 50 mg kg^-1 i.p. daily, nude mice, CMT93): significantly reduce; health and weight of mice ([8]; mouse, in vivo, ip): healthy and maintained weight as normal; direct drug effect on CMT93 cells in vitro [9]: no direct drug effect; secretion of VEGF by CMT93 cells in vitro [9]: inhibit
9.42 µM	12.6 µM	COc1ccc(C(CC(N)=O)N2C(=O)c3ccccc3C2=O)cc1OC (centres unmarked) [SelCID-3]	inhibited	~45 µg/mL	~25 µg/mL	inhibited	potent inhibition	3				potent inhibition	inhibition of human EC proliferation in vitro [10]: greater extent than thalidomide
> 100 µM	190 µM	O=C1CCC(N2C(=O)c3ccccc3C2=O)C(=O)N1 (centres unmarked) [Thalidomide]	did not significantly inhibit					0	non-significant inhibition	1			IC50 ([3]; VEGF-induced proliferation, read-out: HUVEC inhibition ~IC50 VEGF): > 50 µg/mL; IC50 ([3]; bFGF-induced proliferation, read-out: HUVEC inhibition ~IC50 bFGF): > 50 µg/mL; inhibition of microvessel development ([5]; at up to 50 μg ml^-1, data not shown): did not significantly inhibit

Continued, compound first:

Compound	IC50 [1]	IC50 [2]	bFGF and VEGF-induced proliferation of HUVECs [3]	HUVEC inhibition ~IC50 VEGF ([3]; VEGF-induced proliferation)	HUVEC inhibition ~IC50 bFGF ([3]; bFGF-induced proliferation)	bFGF and VEGF-induced proliferation of EA.hy926 [4]	inhibition of microvessel outgrowths ([5]; 1 μg ml^-1 every 48 h)	Anti-angiogenesis Rat aorta [5]	inhibition of tubule development ([6]; 10 μg ml^-1 every 48 h)	Anti-angiogenesis Human model [6]	migration of EC in the wound healing assay [7]	inhibition of microvessel outgrowths ([5]; 10 μg ml^-1 every 48 h)	other results
Cc1ccc(C(=O)Nc2ccc(S(=O)(=O)O)c3cc(S(=O)(=O)O)cc(S(=O)(=O)O)c23)cc1NC(=O)c1cccc(NC(=O)Nc2cccc(C(=O)Nc3cc(C(=O)Nc4ccc(S(=O)(=O)O)c5cc(S(=O)(=O)O)cc(S(=O)(=O)O)c45)ccc3C)c2)c1 [suramin, reference compound]			did not inhibit								significantly inhibit	significantly inhibit	IC50 ([5]; Rattus norvegicus, previously determined, data not shown): 10 µg/mL (≈ 7.71 µM); inhibition at 10 µg/mL ([6]; Homo sapiens, HUVEC, suramin at 10 μg ml^-1): ~50%; concentration required to inhibit EC proliferation [11]: 250 µg/mL
VEGF													effect on angiogenesis (tubule development) ([6]; VEGF at 5 ng ml^-1, positive control): significantly increased
